In this assay the test system is urease forming bacteria, Proteus. In words: Urease inhibition activity (ammonia production by urease forming bacteria in artificial urine). Type of assay: cell-based. How it is done:
PHA was tested for urease inhibition activity using the procedure of Griffith et al in Investigative Urology 13(5),346-350(1976). Briefly, one square centimeter of agar slab containing a layer of urease forming bacteria, Proteus, was dissolved in 25 ml of artificial urine made of 25 g urea dissolved in one liter water. 30 mg polymer was added per ml urine and the mixture incubated overnight at 37° C. The production of ammonia, indicative of urease activity, was measured using an amino acid analyzer.
*% activity was estimated relative to AHA from the ratio between the
decrease in ammonia number of the polymer and AHA.

For `CC(=O)NO` [AHA, acetyl hydroxamic acid], for the setting “30 mg per ml artificial urine, overnight at 37° C., amino acid analyzer”, the Ammonia is 1165-1331. Further, under “estimated relative to AHA from the ratio between the decrease in ammonia number of the polymer and AHA”, the “% Activity” value is listed as 100%.

The values above are taken from patent US5128420A, “Method of making hydroxamic acid polymers from primary amide polymers” (Massachusetts Institute of Technology, priority 1988, dated 1992).
